Species: Rattus norvegicus
Assay: Convulsant activity in Sprague-Dawley rat assessed as partial pressure in atmosphere at which convulsion takes place
Format: functional

FC(F)(F)C(F)(F)Cl [CHLOROPENTAFLUOROETHANE]
log(1/CON): -0.32

FC(F)(Cl)C(F)(Cl)Cl
log(1/CON): 1.36

FC(F)(F)COC(F)(F)F
log(1/CON): 0.66

C1CCCCCCC1 [CYCLOOCTANE]
log(1/CON): 2.82

CCCCCCCCC [NONANE]
log(1/CON): 2.8

FC(F)(F)COCC(F)(F)F [FLUROTHYL]
log(1/CON): 2.81

FC1(F)C(F)(F)[C@@](F)(Cl)[C@@]1(F)Cl
log(1/CON): 1.41

FC(F)(Br)C(F)(F)C(F)(F)C(F)(F)Br
log(1/CON): 1.86

C1CCCCCC1 [CYCLOHEPTANE]
log(1/CON): 2.34

FC(F)(Br)Br [DIBROMODIFLUOROMETHANE]
log(1/CON): 1.59

FC(F)OC(F)(C(F)F)C(F)(F)F (centres undefined)
log(1/CON): 1.25

FC(F)(Cl)C(F)(Cl)C(F)(F)Cl
log(1/CON): 1.31

FC(F)(Cl)OC(F)(F)C(F)(F)Cl
log(1/CON): 0.68

FC(C(F)C(F)(F)C(F)(F)C(F)(F)F)C(F)(F)F (centres undefined)
log(1/CON): 2.31

FC(F)(Cl)C(F)(F)Cl [DICHLOROTETRAFLUOROETHANE]
log(1/CON): 0.41

CC(F)(F)C(F)(F)F
log(1/CON): 0.02

FC(F)(F)C(F)(Cl)C(F)(F)F
log(1/CON): -0.26

FC(F)C(F)(F)C(F)(F)C(F)(F)F
log(1/CON): 0.12

Fc1ccc(F)cc1
log(1/CON): 2.22

FC(F)(Cl)C(F)(Cl)C(F)(Cl)C(F)(F)Cl (centres undefined)
log(1/CON): 2.52

COC(F)(F)C(F)(F)C(F)(F)C(F)(F)F
log(1/CON): 0.67

FC(F)(F)COC(F)(F)Cl
log(1/CON): 1.63

COC(F)(F)C(F)(C(F)(F)F)C(F)(F)F
log(1/CON): 0.67

FC(F)(Cl)OC(F)(Cl)C(F)(F)F (centres undefined)
log(1/CON): 0.71

CCCCCCCC [OCTANE]
log(1/CON): 2.18

FC(F)(F)C(F)(F)C(F)(F)F [PERFLUTREN]
log(1/CON): -0.88

FC(F)(F)C(F)(Cl)C(F)(Cl)C(F)(F)F (centres undefined)
log(1/CON): 1.04

FC(F)(F)C(F)(F)C(F)(F)C(F)(F)Br
log(1/CON): 0.59

FC1(F)C(F)(F)[C@@](F)(Cl)[C@]1(F)Cl (relative stereo)
log(1/CON): 1.19

CCCCC [PENTANE]
log(1/CON): 1.16

FC(F)C(F)(F)C(F)(F)C(F)(F)C(F)(F)C(F)(F)Br
log(1/CON): 1.68

FC(F)(F)C(F)(Br)C(F)(F)F
log(1/CON): 0.13

FC1(F)C(F)(F)C(F)(Cl)C1(F)Cl (racemic)
log(1/CON): 1.26

FC(F)(Cl)OC(Cl)(Cl)C(F)(F)F
log(1/CON): 1.61

Fc1c(F)c(F)c(C(F)(F)F)c(F)c1F [PERFLUOROTOLUENE]
log(1/CON): 3.46

FC(F)(Cl)OC(F)(F)C(F)(Cl)Cl
log(1/CON): 1.52

FC1(F)C(F)(F)C(F)(F)C1(F)F [PERFLUOROCYCLOBUTANE]
log(1/CON): 0.01

FC(F)OC(F)(Cl)C(F)(F)F (centres undefined)
log(1/CON): 0.84

FC(F)(F)C(F)(F)C(F)(F)Br
log(1/CON): 0.03

FC(Cl)(Cl)OC(F)(F)C(F)(F)Cl
log(1/CON): 1.36

C1CCCCC1 [CYCLOHEXANE]
log(1/CON): 1.66

FCOC(F)(F)C(C(F)(F)F)C(F)(F)F
log(1/CON): 1.43

FC(F)(F)c1cc(C(F)(F)F)cc(C(F)(F)F)c1
log(1/CON): 1.85

FC(F)(F)C(F)(F)Br [BROMOPENTAFLUOROETHANE]
log(1/CON): 0.02
